Values quoted from earlier work as cited in patent US9320791B2, “Peptides from chaperonin 60.1” (PE[…], priority 2011, dated 2016).

Test system: recruitment of eosinophils
Conditions: animal model of allergic airway inflammation; disclosed in WO2009/106819

DGSVVVNKVSELPAGHGLNVNTLSYGDLAAD (listed as Mycobacterium tuberculosis) [Peptide 4, peptide derivable from MtCpn60.1 disclosed in WO2009/106819]
recruitment of eosinophils: significantly reduce
